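Compound exposure: 48 hours, 5 concentrations, 96-well plates. The concentration for full growth arrest is given as TGI.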
Columns and labels:
Test in all cases: NCI tumour cell line growth inhibition, 48 h
ACHN renal = test system: ACHN renal
SF-268 CNS = test system: SF-268 CNS
HOP-62 NSCLC = test system: HOP-62 NSCLC
786-0 renal = test system: 786-0 renal
UACC-257 melanoma = test system: UACC-257 melanoma
NCI-H226 lung = test system: NCI-H226 lung
SF-295 CNS = test system: SF-295 CNS
SK-MEL-28 melanoma = test system: SK-MEL-28 melanoma
OVCAR-4 ovarian = test system: OVCAR-4 ovarian
MDA-N = test system: MDA-N

| Compound | TGI (ACHN renal) [µM] | TGI (SF-268 CNS) [µM] | TGI (HOP-62 NSCLC) [µM] | TGI (786-0 renal) [µM] | TGI (UACC-257 melanoma) [µM] | TGI (NCI-H226 lung) [µM] | TGI (SF-295 CNS) [µM] | TGI (SK-MEL-28 melanoma) [µM] | TGI (OVCAR-4 ovarian) [µM] | TGI (MDA-N) [µM] |
| --- | --- | --- | --- | --- | --- | --- | --- | --- | --- | --- |
| COc1cc(/C=C/C(=O)c2sc(-n3nc(-c4ccccc4)cc3-c3ccccc3)nc2C)ccc1O | > 100 | > 100 | > 100 | > 100 | > 100 | > 100 | > 100 | > 100 | – | – |
| CCOC(=O)c1nc2ccc(C(F)(F)F)cc2nc1NCc1ccc(Cl)c(Cl)c1 | 68 | > 100 | 52.1 | 46.7 | > 100 | > 100 | 69.9 | – | 48.6 | > 100 |
| COc1cc(Br)c(OC)c2c(OC)cc(C)cc12 | > 100 | > 100 | > 100 | > 100 | > 100 | > 100 | > 100 | > 100 | – | – |
| CC1(C)C(=O)N(O)C(C)(C)N1O | > 10 | > 10 | > 10 | > 10 | > 10 | > 10 | > 10 | > 10 | > 10 | > 10 |
| CC1=NC(=O)C(C)(c2ccccc2)N1CCc1ccccc1 (configuration not stated) | > 100 | > 100 | > 100 | > 100 | > 100 | > 100 | > 100 | – | > 100 | > 100 |
| Cc1nn2c(=O)c([N+](=O)[O-])c(/C=C/c3ccccc3)nc2s1 | 74.9 | > 100 | > 72 | > 100 | > 100 | 21.1 | > 100 | 64.2 | > 100 | 6.72 |
| COc1ccc(/C=C(\Cl)c2ccc(OC)c(OC)c2)cc1OC | > 100 | > 100 | > 100 | > 100 | > 100 | > 100 | > 100 | > 100 | > 100 | > 100 |
| CCOC(=O)/C(O)=C(/C=N\C(=S)Nc1ccccc1Cl)C(=O)OCC | > 100 | > 100 | > 100 | > 100 | > 100 | > 100 | > 100 | > 100 | > 100 | > 100 |
| COc1ccc(/C=C2/C(C)=NN(c3cccc(Cl)c3)/C2=N/c2nc3ccccc3s2)cc1 | 42.2 | 66.9 | 47.2 | 38.1 | 55.7 | 56.4 | 49.5 | 46.9 | > 100 | 41.6 |
| Cc1occc1C(=S)Nc1ccc(Cl)c(C(=O)OCC(F)(F)F)c1 | 54.1 | 42.3 | – | 34.6 | 55.9 | 35.9 | – | 42.6 | 45.9 | > 100 |
| O=C(O)C1CC2C3CCC2C1C3=O (configuration not stated) | > 100 | > 100 | > 100 | > 100 | > 100 | > 100 | > 100 | > 100 | > 100 | > 100 |
